Read-outs that look alike come from different tables or passages of the source.
Key:
[1] = log P determination by HPLC (EEC Directive 79/831 Annex V.A8); format: physicochemical
Protocol: The measurements were carried out using an Agilent 1100 LC system with a 50*4.6 Zorbax Eclipse C18 1.8 μm column (oven temperature 55° C., flow rate 2.0 ml/min).
The following mobile phases were used:
Mobile phase A: acetonitrile+1000 μl of formic acid/l
Mobile phase B: Millipore water+900 μl of formic acid/l

[2] = tested on: larvae of the mustard beetle (Phaedon cochleariae); assay: Phaedon test (PHAECO spray treatment); settings: Phaedon cochleariae, in Brassica rapa, foliar, read-out: effect in % (beetle larvae killed)
[3] = tested on: caterpillars of the armyworm (Spodoptera frugiperda); assay: Spodoptera frugiperda test (SPODFR spray treatment); format: in vivo; settings: Spodoptera frugiperda, foliar, read-out: effect in % (caterpillars killed)
Excerpt: Solvent: 78.0 parts by weight of acetone

[4] = reversed-phase HPLC, Zorbax Eclipse C18 column, determined by HPLC according to EEC Directive 79/831 Annex V.A8, read-out: log P
[5] = application rate 100 g/ha, maize leaf discs
[6] = reversed-phase HPLC, Zorbax Eclipse C18 column, by HPLC according to EEC Directive 79/831 Annex V.A8, read-out: log P

Row | chromatographic logP [1, 4] | chromatographic logP [1, 6] | Compound | chromatographic logP ([1]; log P) | pest or weed control at 100 g/ha [2] | pest or weed control at 100 g/ha ([3]; in Zea mays) | chromatographic logP ([1]; by HPLC according to EEC Directive 79/831 Annex V.A8, read-out: log P) | pest or weed control at 100 g/ha [3, 5] | chromatographic logP ([1]; HPLC, acetonitrile/water with formic acid, read-out: log P)
1 |  |  | Cc1cc(F)cc(C(=O)NC(C)C2CC2)c1NC(=O)c1cc(Cn2nnc(C(F)(F)C(F)(F)F)n2)nn1-c1ncccc1Cl (stereo not drawn) [Example 148] | 3.8 | ≥ 80% | ≥ 80% |  |  | 
2 |  |  | Cc1cc(C#N)cc(C(=O)NC(C)(C)C)c1NC(=O)c1cc(Cn2nnc(C(F)(F)C(F)(F)C(F)(F)F)n2)nn1-c1ncccc1Cl [Example 108] |  | ≥ 80% | ≥ 80% | 4.16 |  | 
3 | 3.8 |  | Cc1cc(C#N)cc(C(=O)NC(C)C2CC2)c1NC(=O)c1cc(Cn2nnnc2C(F)(C(F)(F)F)C(F)(F)F)nn1-c1ncccc1Cl (stereo not drawn) [Example 499] |  | ≥ 80% |  |  | ≥ 80% | 
4 |  |  | CNC(=O)c1cc(Cl)cc(Cl)c1NC(=O)c1cc(Cn2nnc(C(F)F)n2)nn1-c1ncccc1Cl [Example 282] | 2.48 | ≥ 80% | ≥ 80% |  |  | 
5 |  | 3.48 | COCCNC(=O)c1cc(C#N)cc(C)c1NC(=O)c1cc(Cn2nnc(C(F)(C(F)(F)F)C(F)(F)F)n2)nn1-c1ncccc1Cl [Example 395] |  | ≥ 80% |  |  | ≥ 80% | 
6 |  |  | Cc1cc(C)c(NC(=O)c2cc(Cn3nnc(C(F)(F)F)n3)nn2-c2ncccc2Cl)c(C(=O)NC2CCC2)c1 [Example 84] | 3.42 | ≥ 80% | ≥ 80% |  |  | 
7 |  | 3.1 | Cc1cc(C#N)cc(C(=O)NC(C)C)c1NC(=O)c1cc(Cn2nnc(C(F)(F)F)n2)nn1-c1ncccc1Br [Example 323] |  | ≥ 80% |  |  | ≥ 80% | 
8 |  |  | CCNC(=O)c1cc(Cl)cc(C)c1NC(=O)c1cc(Cn2nnc(C(F)(C(F)(F)F)C(F)(F)F)n2)nn1-c1ncccc1Cl [Example 364] | 3.96 | ≥ 80% | ≥ 80% |  |  | 
9 |  |  | Cc1cc(C#N)cc(C(=O)NCC#N)c1NC(=O)c1cc(Cn2nnc(C(F)(F)C(F)(F)F)n2)nn1-c1ncccc1Cl [Example 210] | 3.01 | ≥ 80% | ≥ 80% |  |  | 
10 |  |  | Cc1cc(Cl)cc(C(=O)NC(C)C)c1NC(=O)c1cc(Cn2nnc(C(F)(F)C(F)(F)C(F)(F)F)n2)nn1-c1ncccc1Cl [Example 1, 2-(3-chloropyridin-2-yl)-5-(5-heptafluoropropyltetrazol-2-ylmethyl)-2H-pyrazole-3-carboxylic acid (4-chloro-2-isopropylcarbamoyl-6-methylphenyl)amide] |  | ≥ 80% | ≥ 80% |  |  | 4.23
11 | 3.91 |  | Cc1cc(Cl)cc(C(=O)NC(C)(C)C)c1NC(=O)c1cc(Cn2nnnc2C(F)(F)C(F)(F)F)nn1-c1ncccc1Br [Example 514] |  | ≥ 80% |  |  | ≥ 80% | 
12 |  |  | Cc1cc(C#N)cc(C(=O)NC(C)(C)C)c1NC(=O)c1cc(Cn2nnc(C(C)(C)C)n2)nn1-c1ncccc1Cl [Example 100] | 3.44 | ≥ 80% | ≥ 80% |  |  | 
13 |  |  | Cc1cc(I)cc(C(=O)NCC2CC2)c1NC(=O)c1cc(Cn2nnc(C(F)F)n2)nn1-c1ncccc1Cl [Example 279] | 3.27 | ≥ 80% | ≥ 80% |  |  | 
14 |  | 4.74 | Cc1cc(I)cc(C(=O)NC(C)C2CC2)c1NC(=O)c1cc(Cn2nnc(C(F)(C(F)(F)F)C(F)(F)F)n2)nn1-c1ncccc1Cl (stereo not drawn) [Example 378] |  | ≥ 80% |  |  | ≥ 80% | 
15 |  |  | CC(NC(=O)c1cc(Cl)cc(Cl)c1NC(=O)c1cc(Cn2nnc(C(F)(F)F)n2)nn1-c1ncccc1Cl)C1CC1 (stereo not drawn) [Example 56] | 3.71 | ≥ 80% | ≥ 80% |  |  | 
16 | 4.14 |  | Cc1cc(Cl)cc(C(=O)NC(C)(C)C)c1NC(=O)c1cc(Cn2nnc(C(F)(F)F)n2)nn1-c1ccccc1 [Example 403] |  | ≥ 80% |  |  | ≥ 80% | 
17 |  |  | CCNC(=O)c1cc(C#N)cc(C)c1NC(=O)c1cc(Cn2nnc(C(F)(F)C(F)(F)F)n2)nn1-c1ncccc1Cl [Example 215] | 3.24 | ≥ 80% | ≥ 80% |  |  | 
18 |  |  | Cc1cc(Br)cc(C(=O)NC2CCC2)c1NC(=O)c1cc(Cn2nnc(C(F)(F)F)n2)nn1-c1ncccc1Cl [Example 50] | 3.71 | ≥ 80% | ≥ 80% |  |  | 
19 |  |  | Cc1cc(I)cc(C(=O)NC(C)C)c1NC(=O)c1cc(Cn2nnc(C(F)(C(F)(F)F)C(F)(F)F)n2)nn1-c1ncccc1Cl [Example 381] | 4.44 | ≥ 80% | ≥ 80% |  |  | 

— patent US8324390B2, “Tetrazole-substituted anthranilamides as pesticides” (Bayer CropScience AG, priority 2008, dated 2012)
